Measurements reported in patent US10647719B2, “Bicyclic compounds as dual ATX/CA inhibitors” (Hoffmann-La Roche Inc., priority 2015, dated 2020).
Like-named read-outs stand apart in the source and are kept apart here.

Key:
[1] = molecular target: Human carbonic anhydrase II (hCA-II) (Homo sapiens (Human), UniProt P00918); test: Human carbonic anhydrase-II inhibition assay (absorbance, 4-nitrophenyl acetate substrate); assay type: biochemical
Protocol: Human Carbonic Anhydrase-II Inhibition Assay
Human carbonic anhydrase II (hCA-II) inhibition was measured by an absorbance method using 4-nitrophenyl acetate (4-NPA) as its substrate. 4-NPA can be catalyzed by active hCA II via a zinc-hydroxide mechanism. The nitrophenolate in the products can be ionized to generate a bright yellow anion with high absorbance at 348 to 400 nm, as reported in the literature (Armstrong et al., J. Biol. Chem. 1966, 241, 5137-5149). OD340 nm was chosen for detecting hCA II substrate conversion.
(§1) Assay working solutions were made as follows:
Assay buffer: 50 mM MOPS, 33 mM Na2SO4, 1 mM EDTA, 0.5 mg/ml BSA, pH 7.5;
Enzyme solution: hCA-II (human, full length) stock solution (1.0 mg/mL in 20 mM HEPES, 50 mM NaCl, pH 7.4), diluted to 2133× final concentration in assay buffer;
4-NPA substrate solution: 4-NPA substrate stock solution (250 mM in DMSO, stored at −20° C.), diluted to 50× final concentration in deionized water.
Test compounds (10 mM stock in DMSO, 100 μL) were obtained in […] sample plates (Corning Costar #3655) and diluted to 0.5 mM. Column-wise serial dilutions were made by transferring 20 μL compound solutions to the next column, from column 3 up to 22. After this, 1.2 μL were transferred to 384 well assay plates (Corning Costar #3701). Then 30 μL of 16 nM hCA II solution was added (8 nM final concentration), mixed five times. 30 μL of 4-NPA substrate solution was added (2.5 mM final concentration), mixed five times. Absorbance at 340 nm was then measured immediately as time zero. The assay plates were incubated at room temperature for 1 hour and then measured as time 1 hour (Perkin Elmer EnVision 2103; Filter: Photometric 340; Light intensity 60%; Number of flashes: 10). IC50 values and Ki values were calculated from these readouts.

human ATX = human ATX (Homo sapiens (Human), UniProt Q13822); test: Human ATX enzyme inhibition assay (fluorescence quenching, MR121 substrate); assay type: biochemical
Protocol: Human ATX Enzyme Inhibition Assay
ATX inhibition was measured by a fluorescence quenching assay using a specifically labeled substrate analogue (MR121 substrate). To obtain this MR121 substrate, BOC and TBS protected 6-amino-hexanoic acid (R)-3-({2-[3-(2-{2-[2-(2-amino-ethoxy)-ethoxy]-ethoxy}-ethoxy)-propionylamino]-ethoxy}-hydroxy-phosphoryloxy)-2-hydroxy-propyl ester (Ferguson et al., Org Lett 2006, 8 (10), 2023) was labeled with MR121 fluorophore (CAS 185308-24-1, 1-(3-carboxypropyl)-11-ethyl-1,2,3,4,8,9,10,11-octahydro-dipyrido[3,2-b:2′,3′-i]phenoxazin-13-ium) on the free amine of the ethanolamine side and then, after deprotection, subsequently with tryptophan on the side of the aminohexanoic acid.
as §1
Assay buffer (50 mM Tris-HCl, 140 mM NaCl, 5 mM KCl, 1 mM CaCl2, 1 mM MgCl2, 0.01% Triton-X-100, pH 8.0;
ATX solution: ATX (human His-tagged) stock solution (1.08 mg/mL in 20 mM bicine, pH 8.5, 0.15 M NaCl, 10% glycerol, 0.3% CHAPS, 0.02% NaN3), diluted to 1.4-2.5× final concentration in assay buffer;
MR121 substrate solution: MR121 substrate stock solution (800 μM MR121 substrate in DMSO), diluted to 2-5× final concentration in assay buffer.
Test compounds (10 mM stock in DMSO, 8 μL) were obtained in 384 well sample plates (Corning Costar #3655) and diluted with 8 μL DMSO. Row-wise serial dilutions were made by transferring 8 μL cpd solution to the next row up to row O. The compound and control solutions were mixed five times and 2 μL were transferred to 384 well assay plates (Corning Costar #3702). Then, 15 μL of 41.7 nM ATX solution was added (30 nM final concentration), mixed five times and then incubated for 15 minutes at 30° C. 10 μL of MR121 substrate solution was added (1 μM final concentration), mixed 30 times and then incubated for 15 minutes at 30° C.

[2] = hCA II 8 nM, 4-NPA 2.5 mM, absorbance 340 nm, room temperature 1 hour, read-out: CA-II IC50
[3] = human His-tagged ATX 30 nM, MR121 substrate 1 μM, 30° C., read-out: ATX IC50

Compound | IC50 [1, 2] [nM] | IC50 (human ATX; [3]) [nM] | IC50 [1] [nM] | IC50 (human ATX) [nM]
CC(C)(C)C(=O)Nc1cc(Cl)cnc1COC(=O)N1CC2=C(C1)CN(C(=O)c1c(F)cc(S(N)(=O)=O)cc1F)C2 [Example 1.15, [5-chloro-3-(2,2-dimethylpropanoylamino)pyridin-2-yl]methyl 2-(2,6-difluoro-4-sulfamoylbenzoyl)-1,3,4,6-tetrahydropyrrolo[3,4-c]pyrrole-5-carboxylate] | 12.9 | 8 |  | 
CC(C)(C)C(=O)Nc1cc(Cl)cnc1COC(=O)N1CC2=C(C1)CN(C(=O)c1ccc(S(N)(=O)=O)c(F)c1)C2 [Example 1.13, [5-chloro-3-(2,2-dimethylpropanoylamino)pyridin-2-yl]methyl 2-(3-fluoro-4-sulfamoylbenzoyl)-1,3,4,6-tetrahydropyrrolo[3,4-c]pyrrole-5-carboxylate] | 20.6 | 2 |  | 
NS(=O)(=O)c1ccc(C(=O)N2CC3=C(CN(C(=O)/C=C/c4ccc(OC(F)(F)F)cc4)C3)C2)c(F)c1 [Example 3.00, 3-Fluoro-4-[2-[(E)-3-[4-(trifluoromethoxy)phenyl]prop-2-enoyl]-1,3,4,6-tetrahydropyrrolo[3,4-c]pyrrole-5-carbonyl]benzenesulfonamide] | 9 | 5 |  | 
NS(=O)(=O)c1ccc(C(=O)N2CC3=C(CN(C(=O)c4cc(OCC5CCOCC5)nc(C5CC5)c4)C3)C2)c(F)c1 [Example 1.08, 4-[5-[2-cyclopropyl-6-(oxan-4-ylmethoxy)pyridine-4-carbonyl]-1,3,4,6-tetrahydropyrrolo[3,4-c]pyrrole-2-carbonyl]-3-fluorobenzenesulfonamide] | 6 | 8 |  | 
CC(C)(C)C(=O)Nc1cc(Cl)c(Cl)nc1COC(=O)N1CC2=C(C1)CN(C(=O)c1c(F)cc(S(N)(=O)=O)cc1F)C2 [Example 1.31, [5,6-dichloro-3-(2,2-dimethylpropanoylamino)pyridin-2-yl]methyl 2-(2,6-difluoro-4-sulfamoylbenzoyl)-1,3,4,6-tetrahydropyrrolo[3,4-c]pyrrole-5-carboxylate] |  |  | 11.5 | 10
CC(C)(C)C(=O)Nc1cc(C(F)(F)F)cnc1COC(=O)N1CC2=C(C1)CN(C(=O)c1ncc(S(N)(=O)=O)cc1F)C2 [Example 1.32, [3-(2,2-dimethylpropanoylamino)-5-(trifluoromethyl)pyridin-2-yl]methyl 2-(3-fluoro-5-sulfamoylpyridine-2-carbonyl)-1,3,4,6-tetrahydropyrrolo[3,4-c]pyrrole-5-carboxylate] |  |  | 2.5 | 5
CC(C)(C)C(=O)Nc1cc(Cl)c(Cl)nc1COC(=O)N1CC2=C(C1)CN(C(=O)c1ccc(S(N)(=O)=O)cc1F)C2 [Example 1.29, [5,6-dichloro-3-(2,2-dimethylpropanoylamino)pyridin-2-yl]methyl 2-(2-fluoro-4-sulfamoylbenzoyl)-1,3,4,6-tetrahydropyrrolo[3,4-c]pyrrole-5-carboxylate] |  |  | 1.2 | 11
CN1CCC(COc2cc(C(=O)N3CC4=C(C3)CN(C(=O)c3ccc(S(N)(=O)=O)c(F)c3F)C4)cc(C3CC3)n2)CC1 [Example 1.34, 4-[5-[2-cyclopropyl-6-[(1-methylpiperidin-4-yl)methoxy]pyridine-4-carbonyl]-1,3,4,6-tetrahydropyrrolo[3,4-c]pyrrole-2-carbonyl]-2,3-difluorobenzenesulfonamide] |  |  | 1 | 12
CC(C)(C)C(=O)Nc1ccc(Cl)nc1COC(=O)N1CC2=C(C1)CN(C(=O)c1ccc(S(N)(=O)=O)cc1F)C2 [Example 1.18, [6-chloro-3-(2,2-dimethylpropanoylamino)pyridin-2-yl]methyl 2-(2-fluoro-4-sulfamoylbenzoyl)-1,3,4,6-tetrahydropyrrolo[3,4-c]pyrrole-5-carboxylate] | 1 | 2 |  | 
NS(=O)(=O)c1ccc(C(=O)N2CC3=C(CN(C(=O)c4cc(OCC5CCOCC5)nc(C5CC5)c4)C3)C2)nc1 [Example 1.07, 6-[5-[2-cyclopropyl-6-(oxan-4-ylmethoxy)pyridine-4-carbonyl]-1,3,4,6-tetrahydropyrrolo[3,4-c]pyrrole-2-carbonyl]pyridine-3-sulfonamide] | 18 | 12 |  | 
NS(=O)(=O)c1ccc(C(=O)N2CC3=C(CN(C(=O)OCc4ccc(OC(F)(F)F)cc4)C3)C2)c(F)c1 [Example 2.03, [4-(trifluoromethoxy)phenyl]methyl 2-(2-fluoro-4-sulfamoylbenzoyl)-1,3,4,6-tetrahydropyrrolo[3,4-c]pyrrole-5-carboxylate] |  |  | 6 | 2
NS(=O)(=O)c1ccc(C(=O)N2CC3=C(CN(C(=O)COc4ccc(OC(F)(F)F)cc4)C3)C2)nc1 [Example 3.04, 6-[2-[2-[4-(trifluoromethoxy)phenoxy]acetyl]-1,3,4,6-tetrahydropyrrolo[3,4-c]pyrrole-5-carbonyl]pyridine-3-sulfonamide] |  |  | 17 | 7
CC(C)(C)C(=O)Nc1ccc(Cl)nc1COC(=O)N1CC2=C(C1)CN(C(=O)c1ccc(S(N)(=O)=O)c(F)c1)C2 [Example 1.21, [6-chloro-3-(2,2-dimethylpropanoylamino)pyridin-2-yl]methyl 2-(3-fluoro-4-sulfamoylbenzoyl)-1,3,4,6-tetrahydropyrrolo[3,4-c]pyrrole-5-carboxylate] | 3 | 12 |  | 
NS(=O)(=O)c1ccc(C(=O)N2CC3=C(CN(C(=O)c4cc(OCC5CCOCC5)nc(C5CC5)c4)C3)C2)c(F)c1F [Example 1.33, 4-[5-[2-cyclopropyl-6-(oxan-4-ylmethoxy)pyridine-4-carbonyl]-1,3,4,6-tetrahydropyrrolo[3,4-c]pyrrole-2-carbonyl]-2,3-difluorobenzenesulfonamide] |  |  | 2.3 | 1
Cc1nnn(Cc2cc(C(F)(F)F)cnc2CCC(=O)N2CC3=C(C2)CN(C(=O)c2ccc(S(N)(=O)=O)cc2F)C3)n1 [Example 3.10, 3-fluoro-4-[2-[3-[3-[(5-methyltetrazol-2-yl)methyl]-5-(trifluoromethyl)pyridin-2-yl]propanoyl]-1,3,4,6-tetrahydropyrrolo[3,4-c]pyrrole-5-carbonyl]benzenesulfonamide] |  |  | 5 | 2
Cc1ccc(NC(=O)C(C)(C)C)c(COC(=O)N2CC3=C(C2)CN(C(=O)c2ccc(S(N)(=O)=O)cc2F)C3)n1 [Example 1.17, [3-(2,2-dimethylpropanoylamino)-6-methylpyridin-2-yl]methyl 2-(2-fluoro-4-sulfamoylbenzoyl)-1,3,4,6-tetrahydropyrrolo[3,4-c]pyrrole-5-carboxylate] | 4 | 11 |  | 
CC(C)(C)C(=O)Nc1cc(C#N)cnc1COC(=O)N1CC2=C(C1)CN(C(=O)c1cc(F)c(S(N)(=O)=O)cc1F)C2 [Example 1.27, [5-cyano-3-(2,2-dimethylpropanoylamino)pyridin-2-yl]methyl 2-(2,5-difluoro-4-sulfamoylbenzoyl)-1,3,4,6-tetrahydropyrrolo[3,4-c]pyrrole-5-carboxylate] | 18 | 8 |  | 
